Activity calls are given as the source filed them. A value given as a limit tells only on which side of the number the result lay.

The target in experiment [1] is CAAX prenyl protease 2 (Saccharomyces cerevisiae S288c, UniProt Q03530). The format is biochemical.
The target in another experiment is Trypsin (Sus scrofa, UniProt P00761). The experiment is described as follows: porcine trypsin inhibitors, dose response, selectivity assay for Rce1 protease inhibitor project, biochemical, quenched peptide fluorescence, cherry-pick (AID 488789).
Trypsin, sequence (P00761 whole entry): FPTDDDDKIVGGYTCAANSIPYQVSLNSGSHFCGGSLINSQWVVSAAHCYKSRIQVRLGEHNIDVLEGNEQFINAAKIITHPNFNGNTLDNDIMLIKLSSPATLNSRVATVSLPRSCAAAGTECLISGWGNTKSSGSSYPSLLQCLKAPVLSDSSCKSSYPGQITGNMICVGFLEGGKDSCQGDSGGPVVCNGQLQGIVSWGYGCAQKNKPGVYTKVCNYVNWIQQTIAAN
Experiment [2] deals with T1, CAAX prenyl protease 2 (Homo sapiens, UniProt Q9Y256).
T1 sequence (Q9Y256 whole entry): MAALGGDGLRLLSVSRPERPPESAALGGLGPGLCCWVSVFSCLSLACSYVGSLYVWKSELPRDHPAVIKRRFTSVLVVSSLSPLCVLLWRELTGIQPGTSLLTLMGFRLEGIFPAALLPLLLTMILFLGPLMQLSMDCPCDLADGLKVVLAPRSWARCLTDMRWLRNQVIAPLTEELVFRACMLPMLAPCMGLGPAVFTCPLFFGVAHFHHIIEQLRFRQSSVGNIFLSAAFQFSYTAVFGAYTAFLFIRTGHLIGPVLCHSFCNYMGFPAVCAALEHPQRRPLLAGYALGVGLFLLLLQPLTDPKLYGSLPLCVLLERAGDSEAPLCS
The experiment is described as follows: human Rce1 protease inhibitors, dose response, biochemical, yeast membranes, quenched-peptide fluorescence, cherry-pick (AID 588849).

Experiment [3] has as its system HEK293. The experiment is described as follows: cells. The format is functional, cell-based. Particulars: Homo sapiens.
Experiment [4] is described as follows: HEp-2 cell cytotoxicity, dose response, cytotoxicity control for RSV inhibitor project, HTS (AID 2410). Particulars: human respiratory syncytial virus. The format is functional.
The test system of another experiment is Streptococcus. As to the kind of experiment: Group A Streptococcus viability loss, dose response, counter-screen for streptokinase expression inhibitor project, luminescence, BacTiterGlo (AID 1915).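 Also: potency for reduction of bacterial viability or growth.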 The format is functional, organism-based. In general terms: A counterscreen serves to expose hits that act by an unwanted route or on another target.
Experiment [5] addresses T2, Short transient receptor potential channel 4 (Mus musculus, UniProt Q9QUQ5).
T2 sequence (Q9QUQ5 whole entry): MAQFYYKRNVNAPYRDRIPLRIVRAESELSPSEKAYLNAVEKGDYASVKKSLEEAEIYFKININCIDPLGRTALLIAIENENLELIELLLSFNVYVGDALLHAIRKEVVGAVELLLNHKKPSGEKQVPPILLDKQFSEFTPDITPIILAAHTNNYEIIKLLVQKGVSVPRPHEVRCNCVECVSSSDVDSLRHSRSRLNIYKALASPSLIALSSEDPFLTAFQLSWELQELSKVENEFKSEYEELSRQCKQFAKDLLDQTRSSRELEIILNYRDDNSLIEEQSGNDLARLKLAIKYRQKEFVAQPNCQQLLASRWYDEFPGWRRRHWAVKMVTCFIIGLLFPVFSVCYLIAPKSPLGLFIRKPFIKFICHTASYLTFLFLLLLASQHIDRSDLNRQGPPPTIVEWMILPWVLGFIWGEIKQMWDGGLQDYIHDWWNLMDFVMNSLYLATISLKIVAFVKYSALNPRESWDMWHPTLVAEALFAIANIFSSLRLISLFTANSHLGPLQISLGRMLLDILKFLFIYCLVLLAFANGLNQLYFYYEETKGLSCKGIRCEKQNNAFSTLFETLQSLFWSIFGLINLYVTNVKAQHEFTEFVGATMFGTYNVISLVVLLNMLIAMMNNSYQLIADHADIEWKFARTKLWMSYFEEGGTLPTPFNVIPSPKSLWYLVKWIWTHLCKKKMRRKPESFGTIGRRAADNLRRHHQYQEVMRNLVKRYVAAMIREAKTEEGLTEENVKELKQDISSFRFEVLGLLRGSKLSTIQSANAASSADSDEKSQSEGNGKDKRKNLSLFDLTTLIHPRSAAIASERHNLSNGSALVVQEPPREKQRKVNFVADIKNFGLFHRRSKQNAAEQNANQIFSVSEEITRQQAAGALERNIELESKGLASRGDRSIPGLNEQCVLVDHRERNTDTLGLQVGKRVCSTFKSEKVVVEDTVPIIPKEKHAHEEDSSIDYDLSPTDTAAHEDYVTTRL
As to the kind of experiment: mouse TRPC4 channel activators, dose response, cell-based, HEK293 TRPC4/mu-opioid, Fluo-4 calcium (AID 434937). The format is functional.

Experiment [6] deals with HEK293. As to the kind of experiment: NOD2 signaling inhibitors in MDP-stimulated cells, cell-based, uHTS, luminescence (AID 2001). The format is functional. Particulars: Homo sapiens.
For experiment [7], the system named is HEK293. The experiment is described as follows: cells. The format is functional, cell-based. Particulars: Homo sapiens. This is another data set of the same source.
Experiment [8] addresses Nucleotide-binding oligomerization domain-containing protein 2 (Homo sapiens, UniProt Q9HC29). As to the kind of experiment: NOD2 signaling inhibitors, cell-based, luminescence, uHTS, HEK293 (AID 1566). The format is functional.
Experiment [9] deals with Streptococcus sp. 'group A'. The experiment is described as follows: growth inhibition of control SK(-) GAS strain, dose response, counter-screen for streptokinase expression inhibitor project, luminescence, kanamycin, BacTiterGlo, confirmation (AID 1900). The format is functional, organism-based. Particulars: read-out: EC50.
A further experiment addresses T3, Streptokinase A (Streptococcus pyogenes serotype M1, UniProt P10520).
T3 sequence (P10520 whole entry): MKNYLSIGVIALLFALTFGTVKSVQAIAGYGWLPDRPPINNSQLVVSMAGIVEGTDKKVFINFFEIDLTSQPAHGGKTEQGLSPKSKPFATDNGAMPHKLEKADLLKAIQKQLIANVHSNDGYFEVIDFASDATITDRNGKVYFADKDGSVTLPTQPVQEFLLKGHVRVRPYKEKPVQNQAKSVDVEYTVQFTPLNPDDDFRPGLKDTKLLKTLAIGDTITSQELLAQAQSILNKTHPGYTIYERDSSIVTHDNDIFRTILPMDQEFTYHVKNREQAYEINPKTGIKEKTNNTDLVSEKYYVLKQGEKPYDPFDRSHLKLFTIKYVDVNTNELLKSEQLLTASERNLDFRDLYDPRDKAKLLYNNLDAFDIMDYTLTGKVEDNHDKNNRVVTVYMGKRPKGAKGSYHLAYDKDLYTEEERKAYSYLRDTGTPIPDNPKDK
As to the kind of experiment: S. pyogenes streptokinase expression inhibitors, potency, dose response, plasminogen activation absorbance, OD405 (AID 1914).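 Also: secreted streptokinase activity via plasminogen activation per viability signal from cell pellet.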 The format is functional, Streptococcus pyogenes M1 GAS.

The test system of experiment [10] is HEK293. As to the kind of experiment: NOD1 signaling inhibitors, primary screen, cell-based, luminescence, uHTS (AID 1578). The format is functional. Particulars: Homo sapiens.
In experiment [11] the test system is HEK293. As to the kind of experiment: cells. The format is functional, cell-based. Particulars: Homo sapiens. This is another data set of the same source.
Experiment [12] deals with Glyceraldehyde-3-phosphate dehydrogenase (Homo sapiens, UniProt P04406).
Glyceraldehyde-3-phosphate dehydrogenase, sequence (P04406 whole entry): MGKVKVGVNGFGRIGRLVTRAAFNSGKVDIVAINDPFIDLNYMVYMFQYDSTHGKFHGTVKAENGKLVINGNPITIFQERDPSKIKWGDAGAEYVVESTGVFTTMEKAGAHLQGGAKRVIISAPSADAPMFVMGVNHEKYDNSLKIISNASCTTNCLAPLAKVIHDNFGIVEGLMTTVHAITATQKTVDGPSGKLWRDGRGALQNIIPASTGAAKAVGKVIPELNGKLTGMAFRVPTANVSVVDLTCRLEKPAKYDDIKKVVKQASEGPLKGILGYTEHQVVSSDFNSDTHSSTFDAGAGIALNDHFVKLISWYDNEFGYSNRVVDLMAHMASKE
The target of experiment [13] is Alkaline phosphatase, placental type (Homo sapiens, UniProt P05187). The experiment is described as follows: PLAP enzyme inhibitors, confirmation, biochemical, luminescence (AID 1512). The format is functional.
Alkaline phosphatase, placental type, sequence (P05187 whole entry): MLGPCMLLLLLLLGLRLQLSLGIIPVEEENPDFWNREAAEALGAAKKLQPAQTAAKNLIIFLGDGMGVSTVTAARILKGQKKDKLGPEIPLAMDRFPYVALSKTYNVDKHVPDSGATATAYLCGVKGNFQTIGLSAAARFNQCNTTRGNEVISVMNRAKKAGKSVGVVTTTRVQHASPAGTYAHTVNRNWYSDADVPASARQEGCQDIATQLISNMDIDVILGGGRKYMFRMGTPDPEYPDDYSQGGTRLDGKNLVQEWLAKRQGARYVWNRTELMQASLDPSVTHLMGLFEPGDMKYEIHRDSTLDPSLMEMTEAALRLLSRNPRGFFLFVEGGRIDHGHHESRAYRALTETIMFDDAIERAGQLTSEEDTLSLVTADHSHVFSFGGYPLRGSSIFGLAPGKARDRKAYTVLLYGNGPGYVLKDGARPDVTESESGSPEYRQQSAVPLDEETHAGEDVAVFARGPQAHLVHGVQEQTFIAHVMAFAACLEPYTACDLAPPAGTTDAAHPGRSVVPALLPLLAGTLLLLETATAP
Experiment [14] addresses T4, Alkaline phosphatase, tissue-nonspecific isozyme (Homo sapiens, UniProt P05186).
T4 sequence (P05186 whole entry): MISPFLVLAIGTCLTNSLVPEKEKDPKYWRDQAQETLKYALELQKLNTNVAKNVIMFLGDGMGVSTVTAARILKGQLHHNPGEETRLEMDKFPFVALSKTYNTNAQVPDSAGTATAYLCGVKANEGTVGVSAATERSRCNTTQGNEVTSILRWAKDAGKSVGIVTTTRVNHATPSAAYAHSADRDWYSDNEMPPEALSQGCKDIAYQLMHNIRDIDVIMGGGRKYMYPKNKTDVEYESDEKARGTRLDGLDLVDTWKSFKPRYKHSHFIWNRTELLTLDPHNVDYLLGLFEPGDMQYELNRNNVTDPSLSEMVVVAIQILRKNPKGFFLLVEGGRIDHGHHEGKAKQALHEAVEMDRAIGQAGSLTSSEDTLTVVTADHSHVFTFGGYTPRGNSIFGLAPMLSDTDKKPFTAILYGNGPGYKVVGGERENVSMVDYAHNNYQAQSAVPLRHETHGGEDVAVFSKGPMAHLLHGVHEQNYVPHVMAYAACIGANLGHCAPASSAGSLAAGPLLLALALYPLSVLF
The experiment is described as follows: human TNAP enzyme inhibitors, SAR follow-up, biochemical, luminescent, dose response (AID 1056).

For the next experiment, the target named is T5, Hexokinase HKDC1 (Homo sapiens, UniProt Q2TB90).
T5 sequence (Q2TB90 whole entry): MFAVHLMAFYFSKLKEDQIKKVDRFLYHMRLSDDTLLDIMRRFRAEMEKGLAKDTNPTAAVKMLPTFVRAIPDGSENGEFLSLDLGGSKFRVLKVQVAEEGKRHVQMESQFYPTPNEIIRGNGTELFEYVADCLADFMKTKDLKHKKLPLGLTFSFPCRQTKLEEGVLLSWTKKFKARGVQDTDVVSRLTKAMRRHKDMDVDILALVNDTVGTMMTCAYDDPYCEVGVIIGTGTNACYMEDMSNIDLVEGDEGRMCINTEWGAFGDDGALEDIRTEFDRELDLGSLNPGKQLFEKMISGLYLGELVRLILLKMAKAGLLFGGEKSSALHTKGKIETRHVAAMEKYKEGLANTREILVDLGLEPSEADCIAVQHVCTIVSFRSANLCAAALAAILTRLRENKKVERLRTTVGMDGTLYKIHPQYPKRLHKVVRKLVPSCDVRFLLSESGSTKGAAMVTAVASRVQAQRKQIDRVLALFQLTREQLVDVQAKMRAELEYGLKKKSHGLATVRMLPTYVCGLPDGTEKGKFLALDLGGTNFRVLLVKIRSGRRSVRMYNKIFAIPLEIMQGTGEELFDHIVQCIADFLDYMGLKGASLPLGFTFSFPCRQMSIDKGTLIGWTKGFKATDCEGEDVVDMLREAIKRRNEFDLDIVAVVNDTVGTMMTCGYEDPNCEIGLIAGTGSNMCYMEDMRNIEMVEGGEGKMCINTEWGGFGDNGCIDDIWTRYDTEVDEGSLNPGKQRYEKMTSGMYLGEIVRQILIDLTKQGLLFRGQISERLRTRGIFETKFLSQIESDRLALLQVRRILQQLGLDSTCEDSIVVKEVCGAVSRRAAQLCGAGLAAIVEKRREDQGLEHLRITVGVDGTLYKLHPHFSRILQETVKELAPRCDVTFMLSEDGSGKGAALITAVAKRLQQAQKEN
The experiment is described as follows: HKDC1 hexokinase inhibitors, dose response, biochemical, W721R variant (AID 504729). The format is functional.

The target of experiment [15] is Polyadenylate-binding protein 1 (Homo sapiens, UniProt P11940). The experiment is described as follows: PABP inhibition in translation initiation, SAR follow-up (AID 435018). The format is functional.
Polyadenylate-binding protein 1, sequence (P11940 whole entry): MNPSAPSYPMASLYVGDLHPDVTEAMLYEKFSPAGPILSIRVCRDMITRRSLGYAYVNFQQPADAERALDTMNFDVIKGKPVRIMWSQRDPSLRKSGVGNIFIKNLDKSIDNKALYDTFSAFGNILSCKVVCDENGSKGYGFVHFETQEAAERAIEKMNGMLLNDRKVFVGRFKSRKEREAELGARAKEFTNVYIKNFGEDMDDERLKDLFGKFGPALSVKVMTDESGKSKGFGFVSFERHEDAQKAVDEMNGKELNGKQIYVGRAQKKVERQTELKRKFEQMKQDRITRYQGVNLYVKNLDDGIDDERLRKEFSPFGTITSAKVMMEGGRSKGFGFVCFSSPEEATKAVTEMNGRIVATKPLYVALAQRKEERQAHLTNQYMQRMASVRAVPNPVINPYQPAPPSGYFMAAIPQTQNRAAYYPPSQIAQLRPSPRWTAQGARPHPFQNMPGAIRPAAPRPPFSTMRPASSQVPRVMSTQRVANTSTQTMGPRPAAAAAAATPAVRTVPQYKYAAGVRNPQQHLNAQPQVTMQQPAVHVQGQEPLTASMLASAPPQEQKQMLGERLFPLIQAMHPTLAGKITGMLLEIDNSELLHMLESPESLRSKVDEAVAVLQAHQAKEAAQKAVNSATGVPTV
Experiment [16] has as its target Eukaryotic translation initiation factor 4H (Homo sapiens, UniProt Q15056). The experiment is described as follows: eIF4H inhibition in translation initiation, SAR follow-up (AID 435011). The format is functional.

CAAX prenyl protease 2 (Saccharomyces cerevisiae S288c, UniProt Q03530), sequence (Q03530 whole entry): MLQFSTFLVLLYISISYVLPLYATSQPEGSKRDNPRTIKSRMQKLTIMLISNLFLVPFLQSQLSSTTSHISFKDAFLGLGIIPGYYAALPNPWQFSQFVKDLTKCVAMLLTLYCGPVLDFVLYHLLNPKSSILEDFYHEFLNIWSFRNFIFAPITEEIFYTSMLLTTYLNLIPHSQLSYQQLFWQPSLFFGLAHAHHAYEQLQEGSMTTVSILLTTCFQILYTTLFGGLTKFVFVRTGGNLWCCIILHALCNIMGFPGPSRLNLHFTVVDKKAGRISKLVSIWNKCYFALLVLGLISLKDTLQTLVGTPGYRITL
Nucleotide-binding oligomerization domain-containing protein 2, sequence (Q9HC29 whole entry, the tested form may be a part): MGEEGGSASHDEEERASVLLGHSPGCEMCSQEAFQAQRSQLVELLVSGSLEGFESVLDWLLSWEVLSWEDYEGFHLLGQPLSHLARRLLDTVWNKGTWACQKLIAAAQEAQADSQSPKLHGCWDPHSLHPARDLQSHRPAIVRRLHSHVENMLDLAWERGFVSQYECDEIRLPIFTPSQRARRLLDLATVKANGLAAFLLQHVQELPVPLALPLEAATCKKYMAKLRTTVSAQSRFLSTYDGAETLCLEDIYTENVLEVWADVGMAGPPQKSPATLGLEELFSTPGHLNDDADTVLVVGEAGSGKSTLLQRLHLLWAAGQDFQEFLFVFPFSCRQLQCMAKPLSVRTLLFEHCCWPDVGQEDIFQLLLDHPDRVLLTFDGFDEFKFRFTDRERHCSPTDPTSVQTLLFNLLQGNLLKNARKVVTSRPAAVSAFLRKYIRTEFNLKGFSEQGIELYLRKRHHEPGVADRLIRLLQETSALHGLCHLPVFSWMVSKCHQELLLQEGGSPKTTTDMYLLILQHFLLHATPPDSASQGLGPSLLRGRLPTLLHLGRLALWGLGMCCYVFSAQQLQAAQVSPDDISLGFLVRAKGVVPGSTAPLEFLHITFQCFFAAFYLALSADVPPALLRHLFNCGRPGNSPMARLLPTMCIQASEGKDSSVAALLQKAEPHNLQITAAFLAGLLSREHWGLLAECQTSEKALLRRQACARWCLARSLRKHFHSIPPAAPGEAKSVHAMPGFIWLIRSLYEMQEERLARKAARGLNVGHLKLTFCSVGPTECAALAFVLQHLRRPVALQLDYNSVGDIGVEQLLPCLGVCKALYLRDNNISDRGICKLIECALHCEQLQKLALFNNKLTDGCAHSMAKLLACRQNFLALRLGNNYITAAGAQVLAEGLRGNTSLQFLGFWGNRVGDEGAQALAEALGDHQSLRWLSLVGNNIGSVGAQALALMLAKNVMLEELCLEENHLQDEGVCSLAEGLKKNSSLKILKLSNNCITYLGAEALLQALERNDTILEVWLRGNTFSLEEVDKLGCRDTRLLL

As for `CCn1c(=O)c(-c2ccccc2)c(O)c2ccccc21`, the AC50 is 11.2 µM (active) at CAAX prenyl protease 2 [1], 7.88 µM (active) at Trypsin and 13.9 µM (active) on CAAX prenyl protease 2 [2].
On to `Cc1csc2c(N3CCN(C(=O)Nc4ccc(Cl)c(Cl)c4)CC3)ncnc12`, for which the IC50 with HEK293 [3] is 8.45 µM (active); with HEK293 [6], 3.23 µM (active); with HEK293 [7] it was 4.78 µM (active); in the experiment on HEK293 [11], > 20 µM (inactive). In experiment [4], the CC50 was 43.7 µM (active). Moreover, the EC50 with Streptococcus is 57.1 µM (active); in experiment [5] it was 1.88 µM (active); in [8] it was 5 µM (active); in [9], 3.4 µM (active); on Streptokinase A it was 14.8 µM (active); in the experiment with HEK293 [10] it was 4.76 µM (active).
On to `CCCc1n[nH]c2c1C(=O)CC(C)(C)C2`, for which the values for the half-maximal inhibitory concentration (IC50) in experiment [12], in [13] and in experiment [14] were > 100 µM (not active), > 100 µM (inactive) and 14.4 µM (active), respectively.
Take `Cc1ccc(-c2nc3ccc(C)cn3c2CC(=O)N(C)C)cc1`: on CAAX prenyl protease 2 [1], the AC50 was 16.8 µM (active).
As to `COc1ccc(NC(=O)CSc2ccc(-c3ccco3)nn2)c(OC)c1`, the IC50 was 5.8 µM (active) at Hexokinase HKDC1, > 100 µM (inactive) in [15] and 86.5 µM (active) in [16].

For orientation: AC50 means the concentration giving half of the maximal activity seen. A word on the IC50: it is the point on the concentration scale where inhibition reaches its midpoint. For orientation: CC50 means the concentration at which the toxic effect on the cells reaches its halfway point. What is called EC50 is the concentration needed to bring the measured effect to its halfway point.

For the origin of these results see ChEMBL document CHEMBL1201862, “PubChem BioAssay data set” (2004).
